The values that follow come from publication PMC6017331, “Bacterial Production, Characterization and Protein Modeling of a Novel Monofuctional Isoform of FAD Synthase in Humans: An Emergency Protein?” (Molecules : A Journal of Synthetic Chemistry and Natural …, 2018).

The target in experiment [1] is T1, hFADS6 (6-His-hFADS6; human FAD synthase isoform 6) (Homo sapiens, UniProt Q8NFF5).
T1 construct: gene FLAD1; 320 residues (963 bp cDNA) from Met268 of FADS1, PAPS reductase domain plus N-terminal extension; E. coli Rosetta(DE3)pLysS; monomer
The experiment is described as follows: fluorimetric FAD pyrophosphorolysis. It counts as biochemical. Conditions: NaPPi, 5 mM MgCl2, 50 mM Tris/HCl pH 7.5, 37 °C; reverse reaction; detection limit of the instrument; read-out: KmFAD.

The target in experiment [2] is T1, hFADS6 (6-His-hFADS6; human FAD synthase isoform 6). The experiment is described as follows: absorbance spectrum and HPLC of acid-extracted flavin from purified protein. It counts as binding. Conditions: co-purified from E. coli; tightly but not covalently bound.
The target is the same in experiment [3]. Briefly: fluorimetric FAD synthesis, Michaelis-Menten fit. It counts as biochemical. Conditions: 5 mM MgCl2, 50 mM Tris/HCl pH 7.5, 37 °C.
The target of experiment [4] is human FAD synthase isoform 2 (6-His-hFADS2) (human). Briefly: SEC-MALS; tandem HPLC-GPC/LS on a Superose 12 10/300 GL column, 0.5 mL/min, 40 mM Hepes/Na, 150 mM NaCl, pH 7.4; MALS masses taken from the peaks run with 1 mM DTT.

A value given as a limit tells only on which side of the number the result lay.

T1 sequence (Q8NFF5 268-587): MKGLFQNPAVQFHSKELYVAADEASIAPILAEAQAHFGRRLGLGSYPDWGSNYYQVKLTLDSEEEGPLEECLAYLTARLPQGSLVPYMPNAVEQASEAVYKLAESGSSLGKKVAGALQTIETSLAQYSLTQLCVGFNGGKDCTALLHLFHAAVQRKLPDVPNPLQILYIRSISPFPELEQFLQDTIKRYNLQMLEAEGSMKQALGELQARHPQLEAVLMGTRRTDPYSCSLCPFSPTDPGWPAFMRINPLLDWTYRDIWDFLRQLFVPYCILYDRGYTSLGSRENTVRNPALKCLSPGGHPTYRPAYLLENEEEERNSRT
Sequence of human FAD synthase isoform 2 (6-His-hFADS2) (enzyme) (Q8NFF5 98-587): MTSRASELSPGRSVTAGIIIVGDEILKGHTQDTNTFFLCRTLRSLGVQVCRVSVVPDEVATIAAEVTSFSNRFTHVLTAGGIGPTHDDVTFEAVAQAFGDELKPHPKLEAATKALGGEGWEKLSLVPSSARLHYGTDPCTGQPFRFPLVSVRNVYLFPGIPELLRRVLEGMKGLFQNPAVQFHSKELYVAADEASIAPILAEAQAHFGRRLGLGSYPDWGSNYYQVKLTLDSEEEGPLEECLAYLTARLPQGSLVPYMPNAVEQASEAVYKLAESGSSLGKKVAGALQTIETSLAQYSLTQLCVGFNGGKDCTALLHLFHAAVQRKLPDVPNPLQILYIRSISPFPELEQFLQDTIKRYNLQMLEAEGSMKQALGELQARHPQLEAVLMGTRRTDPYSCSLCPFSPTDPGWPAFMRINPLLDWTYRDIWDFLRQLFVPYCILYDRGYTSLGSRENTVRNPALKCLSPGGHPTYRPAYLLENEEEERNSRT

As for `Cc1cc2nc3c(=O)[nH]c(=O)nc-3n(C[C@H](O)[C@H](O)[C@H](O)COP(=O)(O)OP(=O)(O)OC[C@H]3O[C@@H](n4cnc5c(N)ncnc54)[C@H](O)[C@@H]3O)c2cc1C` [FAD], the Km in experiment [1] is below 0.1 µM. Moreover, the FAD/monomer ratio entry in experiment [2] is “demonstrates that the bound cofactor is FAD”.

Take `Cc1cc2nc3c(=O)[nH]c(=O)nc-3n(C[C@H](O)[C@H](O)[C@H](O)COP(=O)(O)O)c2cc1C` [FMN]: the Km in experiment [3] (100 µM ATP, read-out: KmFMN (apparent)) worked out at 0.13 ± 0.01 µM. The term stoichiometry N denotes the number of molecules, sites or subunits per partner or assembly. Turning to “human FAD synthase isoform 2 (6-His-hFADS2) (enzyme)”, in experiment [4], the stoichiometry N came to 2. `Nc1ncnc2c1ncn2[C@@H]1O[C@H](COP(=O)(O)OP(=O)(O)OP(=O)(O)O)[C@@H](O)[C@H]1O` [ATP]: the Km in experiment [3] (2 µM FMN, read-out: KmATP (apparent)) was determined as 6.91 ± 0.51 µM.
